The text below walks through data of patent publication US10759781B2, “Substituted guanidine derivatives” (UBE INDUSTRIES, LTD., priority 2015, dated 2020).

Series [1] deals with Human normal glomerular microvascular endothelial cells. Format: cell-based. The conditions noted are these: 2 days, 100 nM. As to the method:
The Cytotoxicity Inhibition Test in Human Normal Glomerular Microvascular Endothelial Cells
(§1) Human normal glomerular microvascular endothelial cells were plated at 6000 cells/well in a collagen-coated 96-well culture plate. After one day of culture, the medium at each well was completely removed by aspiration and replaced with 50 μL of the compound solution diluted with the basal medium. The basal medium containing 0.1% DMSO was added to control wells. Following, the plate was incubated in CO2 incubator for 30 minutes. Fifty microliter of 2 mM methylamine diluted with the basal medium was added (final concentration 1 mM) to each negative control well (0% inhibition) as well as the compound-containing well, and 50 μL of the basal medium was added to each positive control well (100% inhibition). The plate was incubated in CO2 incubator for 2 days. Ten microliter of CCK-8 was added to each well and the mixtures were incubated in a plate incubator at 37° C. for approximately 2 hours after stirring with a plate shaker. The absorbance of the mixtures at 450 nm was measured with a multiplate reader. The cytotoxicity inhibition ratio of the compound was calculated from the following equation. Inhibition ratio={[Average absorbance of the compound-containing wells]−[Average absorbance of negative control wells]}/{[Average absorbance of positive control wells]−[Average absorbance of negative control wells]}×100

The target of another series is T1, Rat Plasma VAP-1 (Rattus norvegicus, UniProt O08590).
T1 construct: from tissue; host or cells: plasma of SD male rats (7-12 weeks old) after oral dosing
T1 sequence (O08590 28-763 limits assumed): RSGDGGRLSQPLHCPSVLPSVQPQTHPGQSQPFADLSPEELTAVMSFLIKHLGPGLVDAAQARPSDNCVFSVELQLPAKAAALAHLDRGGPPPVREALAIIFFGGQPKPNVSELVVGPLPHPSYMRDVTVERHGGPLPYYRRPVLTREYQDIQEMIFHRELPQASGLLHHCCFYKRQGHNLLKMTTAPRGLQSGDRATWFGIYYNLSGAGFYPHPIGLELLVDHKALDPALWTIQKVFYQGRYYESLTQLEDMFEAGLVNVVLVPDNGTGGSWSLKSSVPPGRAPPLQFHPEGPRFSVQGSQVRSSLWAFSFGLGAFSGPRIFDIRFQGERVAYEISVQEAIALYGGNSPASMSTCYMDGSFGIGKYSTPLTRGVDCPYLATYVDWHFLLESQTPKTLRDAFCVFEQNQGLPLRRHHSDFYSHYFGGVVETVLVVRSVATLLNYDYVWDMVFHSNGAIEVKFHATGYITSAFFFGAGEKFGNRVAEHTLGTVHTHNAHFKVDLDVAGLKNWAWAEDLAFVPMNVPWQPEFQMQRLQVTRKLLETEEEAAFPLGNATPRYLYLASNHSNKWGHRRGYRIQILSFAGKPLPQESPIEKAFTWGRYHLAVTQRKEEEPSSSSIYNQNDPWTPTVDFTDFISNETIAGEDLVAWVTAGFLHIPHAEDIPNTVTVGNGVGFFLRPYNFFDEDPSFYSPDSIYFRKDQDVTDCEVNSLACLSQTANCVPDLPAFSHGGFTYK
Put plainly: (Ex vivo) rat plasma VAP-1 inhibition test after oral administration of the compound. The format is in vivo. The conditions noted are these: 3 hours after oral administration, SD male rats, read-out: inhibition ratio (plasma VAP-1, ex vivo). The procedure, abridged:
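Male SD rats, 7–12 weeks, non-fasted, dosed orally at 0.3–10 mg/kg; jugular blood taken predose and 3, 8 and 24 h after dosing. Plasma incubated with 2.5 μM 14C-benzylamine for 3 h at 37 °C; extracted product counted by scintillation. Inhibition expressed relative to each animal's predose plasma activity.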

The next series in a line: in vivo. The arrangement: species or system SD rats. The conditions noted are these: SD, rat, po, 3 mg/kg. As to the method: Rat Pharmacokinetic (PK) Study (Concentration of Compound in Plasma after Oral Administration)
Seven to eight week old SD rats (weighing 180 to 250 g) were orally administered with a suspension of the compound in 0.5 W/V % methylcellulose 400 solution. Under anesthesia, the blood was collected from the jugular vein in EDTA tubes at 0.25, 0.5, 1, 2, 4, 6, 8 and 24 hours after the administration of the compound. The blood was centrifuged at 4° C. and 6000 g for 3 minutes to give plasma. Acetonitrile was added to the plasma, and the mixture was stirred with a shaker at 750 rpm for 3 minutes and was deproteinized by centrifugation at 3700 rpm for 2 minutes. Thus, the obtained sample was analyzed by LC/MS under the following conditions.
The concentration of the compound in the plasma at each blood sampling time was determined by an internal standard method, and AUC all (Area Under Curve) was calculated by a trapezoidal method.
The following LC and MS systems were used for measurement.
LC: CBM 30 series manufactured by Shimadzu Corporation
Column: Phenomenex Kinetex C18 (50×2.1 mm, 2.6 μm)
Column temperature: 40° C.
Mobile phase A: 0.1% aqueous formic acid solution, mobile phase B: 0.1% formic acid,
50% acetonitrile/methanol mixture
MS: 3200 manufactured by SCIEX

The subject of series [2] is Human normal hepatic sinusoid-like microvascular endothelial cells. Format: cell-based. As to conditions: 2 days, 300 nM. As to the method: The Cytotoxicity Inhibition Test in Human Normal Hepatic Sinusoid-Like Microvascular Endothelial Cells
as §1, with “hepatic sinusoid-like” for “glomerular”

The next series has as its target T2, Human VAP-1 enzyme (Homo sapiens, UniProt Q16853).
T2 construct: purchased R&D Systems, Inc
T2 sequence (Q16853 1-763): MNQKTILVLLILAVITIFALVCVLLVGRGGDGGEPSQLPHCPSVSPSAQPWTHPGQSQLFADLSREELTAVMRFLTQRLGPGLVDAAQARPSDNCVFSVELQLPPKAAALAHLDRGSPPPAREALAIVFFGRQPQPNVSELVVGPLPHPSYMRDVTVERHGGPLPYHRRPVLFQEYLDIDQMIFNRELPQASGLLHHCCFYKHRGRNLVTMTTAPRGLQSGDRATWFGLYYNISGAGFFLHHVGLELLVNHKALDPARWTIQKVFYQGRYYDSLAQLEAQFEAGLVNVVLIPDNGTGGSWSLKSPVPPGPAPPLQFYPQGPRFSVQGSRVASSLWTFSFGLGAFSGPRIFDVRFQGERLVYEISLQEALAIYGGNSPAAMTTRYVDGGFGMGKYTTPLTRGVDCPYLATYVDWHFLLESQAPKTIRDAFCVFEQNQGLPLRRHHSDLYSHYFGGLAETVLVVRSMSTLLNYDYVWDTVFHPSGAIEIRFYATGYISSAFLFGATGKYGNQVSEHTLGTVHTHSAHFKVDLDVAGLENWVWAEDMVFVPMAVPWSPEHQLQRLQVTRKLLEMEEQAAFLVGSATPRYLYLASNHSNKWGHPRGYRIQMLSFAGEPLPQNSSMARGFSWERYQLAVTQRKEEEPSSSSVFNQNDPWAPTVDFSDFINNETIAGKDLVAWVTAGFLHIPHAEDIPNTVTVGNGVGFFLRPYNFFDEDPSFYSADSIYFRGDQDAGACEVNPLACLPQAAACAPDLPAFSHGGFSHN
Put plainly: Human VAP-1 enzyme inhibition test. As to conditions: 1 h; compound 30 nM; 14C-benzylamine 100 μM; read-out: inhibition ratio (human VAP-1 enzyme). The format is biochemical. The essentials: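 Recombinant human VAP-1 pre-incubated 20 min at room temperature with compound in DMSO, then reacted with 14C-benzylamine (100 μM final) 1 h at 37 °C. Citric acid stop; oxidized product extracted into toluene/ethyl acetate and counted by liquid scintillation. Inhibition ratio relative to DMSO-only activity.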

For the compound `CON=C1CN(c2ncc(-c3cccc(COC(=O)NC(=N)N)c3F)cn2)C1` [Example 1, 2-Fluoro-3-{2-[3-(methoxyimino)azetidin-1-yl]pyrimidin-5-yl}benzyl carbamimidoylcarbamate], the cytotoxicity inhibition ratio in series [1] and in series [2] was at least 50% each time. In addition, the inhibition in vivo at 0.3 mg/kg at Rat Plasma VAP-1 was at least 50%. In the series “in vivo”, this compound returned an AUC of at least 1000 ng·h/mL.

For the compound `CCON=C1CN(c2ncc(-c3cccc(COC(=O)NC(=N)N)c3F)cn2)C1` [Example 2, 3-{2-[3-(Ethoxyimino)azetidin-1-yl]pyrimidin-5-yl}-2-fluorobenzyl carbamimidoylcarbamate], the cytotoxicity inhibition ratio in series [1] and in series [2] was at least 50% each time. The inhibition in vivo at 0.3 mg/kg at Rat Plasma VAP-1 is at least 50%.

On to `[2H]C([2H])([2H])ON=C1CN(c2ncc(-c3cccc(COC(=O)NC(=N)N)c3F)cn2)C1` [Example 3, 2-Fluoro-3-(2-{3-[(methoxy-d3)imino]azetidin-1-yl}pyrimidin-5-yl)benzyl carbamimidoylcarbamate], for which, at Human VAP-1 enzyme, the inhibition at 0.03 µM was at least 50%. For the same compound, the cytotoxicity inhibition ratio in series [1] and in series [2] was at least 50% throughout. The inhibition in vivo at 0.3 mg/kg at Rat Plasma VAP-1 was at least 50%.

As to `N=C(N)NC(=O)OCc1cccc(-c2cnc(N3CC(=NOCCF)C3)nc2)c1F` [Example 5, 2-Fluoro-3-(2-{3-[(2-fluoroethoxy)imino]azetidin-1-yl}pyrimidin-5-yl)benzyl carbamimidoylcarbamate], the cytotoxicity inhibition ratio in series [1] and in series [2] was at least 50% throughout. The inhibition in vivo at 0.3 mg/kg at Rat Plasma VAP-1 is at least 50%.

Turning to `CC(=O)OC1CC(ON=C2CN(c3ncc(-c4cccc(COC(=O)NC(=N)N)c4F)cn3)C2)C1` (stereo not drawn) [Example 133, 3-[({1-[5-(3-{[(Carbamimidoylcarbamoyl)oxy]methyl}-2-fluorophenyl)pyrimidin-2-yl]azetidin-3-ylidene}amino)oxy]cyclobutyl acetate], the inhibition at 0.03 µM at Human VAP-1 enzyme was at least 50%. Moreover, the cytotoxicity inhibition ratio in series [1] and in series [2] was at least 50% throughout. On Rat Plasma VAP-1, the inhibition in vivo at 0.3 mg/kg is at least 50%.

For `N=C(N)NC(=O)OCc1cccc(-c2cnc(N3CC(=NOC4CC(O)C4)C3)nc2)c1F` (stereo not drawn) [Example 134, 2-Fluoro-3-(2-{3-[(3-hydroxycyclobutoxy)imino]azetidin-1-yl}pyrimidin-5-yl)benzyl carbamimidoylcarbamate], on Human VAP-1 enzyme, the inhibition at 0.03 µM was at least 50%. In addition, the cytotoxicity inhibition ratio in series [1] and in series [2] was at least 50% in each case. Moreover, on Rat Plasma VAP-1, the inhibition in vivo at 0.3 mg/kg was at least 50%.

On to `CS(=O)(=O)N1CC(ON=C2CN(c3ncc(-c4cccc(COC(=O)NC(=N)N)c4F)cn3)C2)C1` [Example 141, 2-Fluoro-3-{2-[3-({[1-(methylsulfonyl)azetidin-3-yl]oxy}imino)azetidin-1-yl]pyrimidin-5-yl}benzyl carbamimidoylcarbamate], for which the inhibition at 0.03 µM on Human VAP-1 enzyme was at least 50%. Moreover, the cytotoxicity inhibition ratio in series [1] and in series [2] was at least 50% each time. Also, at Rat Plasma VAP-1, the inhibition in vivo at 0.3 mg/kg is at least 50%.

Turning to `N=C(N)NC(=O)OCc1cccc(-c2cnc(N3CC(=NOC4COC4)C3)nc2)c1F` [Example 144, 2-Fluoro-3-(2-{3-[(oxetan-3-yloxy)imino]azetidin-1-yl}pyrimidin-5-yl)benzyl carbamimidoylcarbamate], the inhibition at 0.03 µM on Human VAP-1 enzyme was at least 50%. Further, the cytotoxicity inhibition ratio in series [1] and in series [2] was at least 50% in each case. Besides, at Rat Plasma VAP-1, the inhibition in vivo at 0.3 mg/kg was at least 50%.
